From ChEMBL document CHEMBL5260810, “Inhibition of bromodomain-containing protein 9 for the prevention of epigenetically-defined drug resistance” (Bioorg Med Chem Lett, 2017)
pIC50: −log10 of the molar value.

Assays:
Type in all cases: functional, cell-based
[1] = tested on: JIYOYE; test: Cytotoxicity against human JIYOYE cells measured after 8 days; settings: 192 h
[2] = tested on: KU812 cell line; test: Cytotoxicity against human KU812 cell line measured after 8 days; settings: KU812, 192 h
[3] = tested on: OCI-AML-3; test: Cytotoxicity against human OCI-AML-3 cells measured after 8 days; settings: OCI-AML-3, 192 h
[4] = tested on: CHP-212; test: Cytotoxicity against human CHP-212 cells measured after 8 days; settings: CHP-212, 192 h
[5] = Cytotoxicity against human NCE-G 121 cells measured after 8 days; settings: NCE-G 121, 192 h
[6] = Cytotoxicity against human NCE-G 124 cells measured after 8 days; settings: NCE-G 124, 192 h
[7] = tested on: GI-1; test: Cytotoxicity against human GI-1 cells measured after 8 days; settings: GI-1, 192 h
[8] = Cytotoxicity against human GOTO.P3 cells measured after 8 days; settings: GOTO.P3, 192 h
[9] = tested on: IMR-32; test: Cytotoxicity against human IMR-32 cells measured after 8 days; settings: IMR-32, 192 h
[10] = tested on: NB1; test: Cytotoxicity against human NB1 cells measured after 8 days; settings: NB1, 192 h
[11] = tested on: SIMA; test: Cytotoxicity against human SIMA cells measured after 8 days; settings: 192 h
[12] = tested on: FaDu; test: Cytotoxicity against human FaDu cells measured after 8 days; settings: 192 h
[13] = tested on: BT-474; test: Cytotoxicity against human BT-474 cells measured after 8 days; settings: BT-474, 192 h
[14] = tested on: MCF-10A; test: Cytotoxicity against human MCF-10A AKT2-/- cells measured after 8 days; settings: 192 h
[15] = tested on: MCF-10A; test: Cytotoxicity against human MCF-10A CDH1-/- cells measured after 8 days; settings: 192 h
[16] = Cytotoxicity against human HCA1 cells measured after 8 days; settings: HCA1, 192 h
[17] = Cytotoxicity against human HCS-2 cells measured after 8 days; settings: HCS-2, 192 h
[18] = tested on: ME-180; test: Cytotoxicity against human ME-180 cells measured after 8 days; settings: ME-180, 192 h
[19] = Cytotoxicity against human MR1-3 cells measured after 8 days; settings: MR1-3, 192 h
[20] = Cytotoxicity against human SKG-IIIb cells measured after 8 days; settings: 192 h
[21] = Cytotoxicity against human KR7110 cells measured after 8 days; settings: KR7110, 192 h
[22] = Cytotoxicity against human PaTu 8902 cells measured after 8 days; settings: PaTu 8902, 192 h
[23] = tested on: Panc02; test: Cytotoxicity against mouse Panc02 cells measured after 8 days; settings: Panc02, 192 h
[24] = tested on: CT26.WT; test: Cytotoxicity against mouse CT26.WT cells measured after 8 days; settings: 192 h
[25] = tested on: PANC-1; test: Cytotoxicity against human PANC-1 cells measured after 8 days; settings: PANC-1, 192 h
[26] = tested on: PSN1; test: Cytotoxicity against human PSN1 cells measured after 8 days; settings: PSN1, 192 h
[27] = Cytotoxicity against human PMF-ko14 cells measured after 8 days; settings: PMF-ko14, 192 h
[28] = tested on: A673; test: Cytotoxicity against human A673 cells measured after 8 days; settings: A673, 192 h
[29] = tested on: KYSE-140; test: Cytotoxicity against human KYSE-140 cells measured after 8 days; settings: KYSE-140, 192 h
[30] = Cytotoxicity against human COLO 853 cells measured after 8 days; settings: COLO 853, 192 h
[31] = Cytotoxicity against human COLO 857 cells measured after 8 days; settings: COLO 857, 192 h
[32] = Cytotoxicity against human COLO 858 cells measured after 8 days; settings: COLO 858, 192 h
[33] = tested on: G-361; test: Cytotoxicity against human G-361 cells measured after 8 days; settings: G-361, 192 h
[34] = Cytotoxicity against human T.T cells measured after 8 days; settings: TT, 192 h
[35] = tested on: 786-0; test: Cytotoxicity against human 786-0 cells measured after 8 days; settings: 786-0, 192 h
[36] = Cytotoxicity against human HCC89 cells measured after 8 days; settings: HCC89, 192 h
[37] = Cytotoxicity against human UM-RC-6 cells measured after 8 days; settings: UM-RC-6, 192 h
[38] = tested on: LOX IMVI; test: Cytotoxicity against human LOX IMVI cells measured after 8 days; settings: 192 h
[39] = tested on: SK-MEL-24; test: Cytotoxicity against human SK-MEL-24 cells measured after 8 days; settings: SK-MEL-24, 192 h
[40] = tested on: SNU-182; test: Cytotoxicity against human SNU-182 cells measured after 8 days; settings: SNU-182, 192 h
[41] = tested on: 8505C; test: Cytotoxicity against human 8505C cells measured after 8 days; settings: 192 h
[42] = Cytotoxicity against human ASH-3 cells measured after 8 days; settings: ASH-3, 192 h
[43] = Cytotoxicity against human BICR 22 cells measured after 8 days; settings: BICR 22, 192 h
[44] = tested on: SW780; test: Cytotoxicity against human SW780 cells measured after 8 days; settings: SW780, 192 h
[45] = tested on: UMUC3; test: Cytotoxicity against human UMUC3 cells measured after 8 days; settings: UMUC3, 192 h
[46] = tested on: HT-1080; test: Cytotoxicity against human HT-1080 cells measured after 8 days; settings: HT-1080, 192 h
[47] = Cytotoxicity against human HCC597 cells measured after 8 days; settings: HCC597, 192 h
[48] = tested on: HEC-1-A; test: Cytotoxicity against human HEC-1-A cells measured after 8 days; settings: 192 h
[49] = Cytotoxicity against human HEC-88nu cells measured after 8 days; settings: 192 h
[50] = tested on: PC-9; test: Cytotoxicity against human PC-9 cells assessed as decrease in drug tolerant population supplemented with fresh medium containing compound every 3 days for 9 days in presence of erlotinib by Beckman Coulter counting method; settings: time 9.0 day
[51] = tested on: NAMALVA; test: Cytotoxicity against human NAMALVA cells measured after 3 days; settings: 72 h
[52] = tested on: RPMI-8226; test: Cytotoxicity against human RPMI-8226 cells measured after 3 days; settings: RPMI-8226, 72 h
[53] = Cytotoxicity against human HNT-34 cells measured after 3 days; settings: HNT-34, 72 h
[54] = Cytotoxicity against human HLF cells measured after 3 days; settings: 72 h
[55] = Cytotoxicity against human LUDLU-1 cells measured after 3 days; settings: LUDLU-1, 72 h
[56] = Cytotoxicity against human NCE-G 61 cells measured after 3 days; settings: NCE-G 61, 72 h
[57] = tested on: DB; test: Cytotoxicity against human DB cells measured after 3 days; settings: 72 h
[58] = tested on: Rec1; test: Cytotoxicity against human REC1 cells measured after 3 days; settings: Rec1, 72 h
[59] = tested on: DOV13; test: Cytotoxicity against human DOV13 cells measured after 3 days; settings: DOV13, 72 h
[60] = tested on: BT-474; test: Cytotoxicity against human BT-474 cells measured after 3 days; settings: BT-474, 72 h
[61] = tested on: EBC-1; test: Cytotoxicity against human EBC-1 cells after 8 days; settings: EBC-1, 192 h

## C/C=C/Cn1cc(-c2ccc(C(=O)N3CCOCC3)cc2)c2cc[nH]c2c1=O
[1]
  pIC50: 5.55
[2]
  pIC50: 4.70
[3]
  pIC50: 4.95
[4]
  pIC50: 4.73
[5]
  pIC50: 4.70
[6]
  pIC50: 4.70
[7]
  pIC50: 4.70
[8]
  pIC50: 4.70
[9]
  pIC50: 4.70
[10]
  pIC50: 4.70
[11]
  pIC50: 4.70
[12]
  pIC50: 4.70
[13]
  pIC50: 4.70
[14]
  pIC50: 4.85
[15]
  pIC50: 4.70
[16]
  pIC50: 4.70
[17]
  pIC50: 4.70
[18]
  pIC50: 4.70
[19]
  pIC50: 4.70
[20]
  pIC50: 4.70
[21]
  pIC50: 4.70
[22]
  pIC50: 4.70
[23]
  pIC50: 4.70
[24]
  pIC50: 4.70
[25]
  pIC50: 4.70
[26]
  pIC50: 4.70
[27]
  pIC50: 4.70
[28]
  pIC50: 4.70
[29]
  pIC50: 4.70
[30]
  pIC50: 4.70
[31]
  pIC50: 4.70
[32]
  pIC50: 4.70
[33]
  pIC50: 4.70
[34]
  pIC50: 4.70
[35]
  pIC50: 4.70
[36]
  pIC50: 4.70
[37]
  pIC50: 4.70
[38]
  pIC50: 4.70
[39]
  pIC50: 4.70
[40]
  pIC50: 4.70
[41]
  pIC50: 4.70
[42]
  pIC50: 4.70
[43]
  pIC50: 4.70
[44]
  pIC50: 4.70
[45]
  pIC50: 4.70
[46]
  pIC50: 4.70
[47]
  pIC50: 4.70
[48]
  pIC50: 4.70
[49]
  pIC50: 4.70
[50]
  Activity: Dose-Dependent Effect

## C/C=C/Cn1cc(-c2cc(OC)c(C(=O)N3CCOCC3)cc2OC)c2cc(C)[nH]c2c1=O
[51]
  pIC50: 5.30
[52]
  pIC50: 5.30
[53]
  pIC50: 5.30
[54]
  pIC50: 5.30
[55]
  pIC50: 5.30
[56]
  pIC50: 5.30
[57]
  pIC50: 5.30
[58]
  pIC50: 5.30
[59]
  pIC50: 5.30
[60]
  pIC50: 5.30
[61]
  pIC50: 5.70

## C/C=C/Cn1cc(-c2ccc(C(C)(C)O)cc2OC)c2cc[nH]c2c1=O
[1]
  pIC50: 4.87
[2]
  pIC50: 4.70
[3]
  pIC50: 4.70
[4]
  pIC50: 4.70
[5]
  pIC50: 4.70
[6]
  pIC50: 4.70
[7]
  pIC50: 4.70
[8]
  pIC50: 4.70
[9]
  pIC50: 4.70
[10]
  pIC50: 4.99
[11]
  pIC50: 4.70
[12]
  pIC50: 4.70
[13]
  pIC50: 4.70
[14]
  pIC50: 4.85
[15]
  pIC50: 4.70
[16]
  pIC50: 4.70
[17]
  pIC50: 4.70
[18]
  pIC50: 4.70
[19]
  pIC50: 4.70
[20]
  pIC50: 4.70
[21]
  pIC50: 4.70
[22]
  pIC50: 4.70
[23]
  pIC50: 4.70
[24]
  pIC50: 4.70
[25]
  pIC50: 4.70
[26]
  pIC50: 4.70
[27]
  pIC50: 4.70
[28]
  pIC50: 4.70
[29]
  pIC50: 4.70
[30]
  pIC50: 4.70
[31]
  pIC50: 4.70
[32]
  pIC50: 4.70
[33]
  pIC50: 4.70
[34]
  pIC50: 4.70
[35]
  pIC50: 4.70
[36]
  pIC50: 4.70
[37]
  pIC50: 4.70
[38]
  pIC50: 4.70
[39]
  pIC50: 4.70
[40]
  pIC50: 4.70
[41]
  pIC50: 4.70
[42]
  pIC50: 4.70
[43]
  pIC50: 4.70
[44]
  pIC50: 4.70
[45]
  pIC50: 4.70
[46]
  pIC50: 4.70
[47]
  pIC50: 4.70
[48]
  pIC50: 4.70
[49]
  pIC50: 4.70
[50]
  Activity: Dose-Dependent Effect
